Measured values as given in patent US6353011B1, “1,2-dithiolane derivatives” (University of Mississippi, priority 1999, dated 2002).
One block for each compound: values may come before it.

Experiments:
[1] = Ulrich et al., U.S. Pat. No. 5,728,735; cited from earlier work
[2] = tested on: insulin resistant obese Zucker rats; assay: Serum insulin and glucose in insulin resistant obese Zucker rats; type: in vivo, rat; conditions: oral 100 mg/kg/day for one week, versus placebo controls
Excerpt: The drug was suspended in a mixture of 0.5% carboxymethylcellulose and administered by gavage. […] After one week, blood samples were obtained for measurement of serum insulin levels by radioimmunoassay and serum glucose levels by glucose oxidase method. […] The effects of a higher dose of orally administered Rezulin® (troglitazone) on serum insulin and glucose levels in male obese Zucker rats as reported by Fujiwara et al., Diabetes 37.1549 are shown for comparison purposes.

[3] = tested on: insulin resistant obese Zucker rats; assay: Triglyceride levels in insulin resistant obese Zucker rats; type: in vivo, rat; conditions: oral 100 mg/kg/day for one week
Excerpt: The drug was suspended in a mixture of 0.5% carboxymethylcellulose and administered by gavage.

[4] = tested on: Human keratinocytes; assay: Human keratinocyte proliferation (cell numbers); type: cell-based; conditions: varying concentrations
[5] = tested on: Human keratinocytes; assay: Cell toxicity by lactate dehydrogenase release in keratinocyte culture; type: cell-based; conditions: highest concentration tested
[6] = tested on: Human HT-29 colon cancer cells; assay: HT-29 colon cancer cell proliferation (cell numbers); type: cell-based
[7] = tested on: Human MCF-7 breast cancer cells; assay: MCF-7 breast cancer cell proliferation (cell numbers); type: cell-based; conditions: MCF-7, varying concentrations
[8] = tested on: 3T3 L 1 fibroblasts; assay: 3T3 L1 fibroblast proliferation (cell numbers); type: cell-based; conditions: 3T3L1 cells
Method: (§1) This example illustrates the effects of compound 87 and troglitazone on proliferation of 3T3 L 1 fibroblasts and differentiation into adipocytes. 3T3L1 cells were incubated with varying concentrations of either compound 87 or troglitazone and the effects on cell proliferation determined by measurement of cell numbers. […] The compounds of the present invention are capable of preventing cell proliferation without inducing adipogenesis and represent useful agents for treatment and prevention of obesity.

[9] = tested on: 3T3 L 1 fibroblasts; assay: 3T3 L1 differentiation into adipocytes (morphology, oil red O staining); type: cell-based; conditions: 3T3L1 cells
Method: as §1

[10] = tested on: Human MDA-MB-23 1 breast cancer cells; assay: MDA-MB-231 breast cancer cell proliferation (cell numbers); type: cell-based
Method: […]. […] Human MDA-MB-23 1 breast cancer cells were incubated with varying concentrations of either compound 86 or troglitazone and the effects on cell proliferation determined by measurement of cell numbers. […]. Compound 86 inhibits growth of human breast cancer cells.

[11] = target: T1, PPAR gamma (Mus musculus, UniProt P37238); assay: In vitro molecular assays of PPAR gamma activation
T1 sequence (P37238 1-505): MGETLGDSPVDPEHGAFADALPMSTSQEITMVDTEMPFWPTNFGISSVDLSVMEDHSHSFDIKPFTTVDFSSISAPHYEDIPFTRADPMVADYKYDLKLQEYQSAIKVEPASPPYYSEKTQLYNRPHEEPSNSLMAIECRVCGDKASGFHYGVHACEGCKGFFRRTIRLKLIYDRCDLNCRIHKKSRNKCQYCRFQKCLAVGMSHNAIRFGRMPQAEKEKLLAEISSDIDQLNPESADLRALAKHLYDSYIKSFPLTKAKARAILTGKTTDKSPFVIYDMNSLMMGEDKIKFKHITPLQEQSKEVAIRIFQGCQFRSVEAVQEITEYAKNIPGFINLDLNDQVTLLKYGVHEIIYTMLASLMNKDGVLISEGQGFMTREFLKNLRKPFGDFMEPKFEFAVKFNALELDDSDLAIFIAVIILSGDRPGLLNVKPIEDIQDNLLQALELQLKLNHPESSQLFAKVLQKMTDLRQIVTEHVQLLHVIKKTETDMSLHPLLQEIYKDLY

Structure (SMILES): O=C(O)CCCC[C@@H]1CCSS1 [R-lipoic acid]
anti-inflammatory activity, factor stronger than that of the racemate [1]: 10

Structure (SMILES): CN(CCOc1ccc(CC2SC(=O)NC2=O)cc1)C(=O)CCCCC1CCSS1 (centres unmarked) [compound 12]
serum glucose levels ([2]; glucose oxidase method): reductions in glucose levels | serum insulin levels ([2]; radioimmunoassay): reductions in serum insulin levels | triglyceride levels [3]: potent ability to reduce triglyceride levels | cell proliferation (cell numbers) [4]: dose dependent inhibition of cell proliferation | cell toxicity (release of lactate dehydrogenase in the culture medium) [5]: without inducing cell toxicity | potency in inhibiting malignant cell proliferation compared with troglitazone ([6]; HT-29): more potent than troglitazone | cell proliferation (cell numbers) ([6]; HT-29, varying concentrations): dose dependent inhibition of cell proliferation | cell proliferation (cell numbers) [7]: dose dependent inhibition of malignant cell proliferation | potency of inhibition of fibroblast proliferation compared with troglitazone [8]: in a more potent fashion than troglitazone | fibroblast proliferation (cell numbers) ([8]; varying concentrations): dose dependent inhibition of fibroblast proliferation | adipogenesis and conversion of the fibroblasts to adipocytes [9]: potent inducers of adipogenesis

Structure (SMILES): O=C(CCCCC1CCSS1)NCCOc1ccc(CC2SC(=O)NC2=O)cc1 (centres unmarked) [compound 86]
potency in inhibiting malignant cell proliferation compared with troglitazone ([10]; MDA-MB-23 1): more potent than troglitazone | cell proliferation (cell numbers) ([10]; MDA-MB-23 1, varying concentrations): dose dependent inhibition of cell proliferation

activation of PPAR gamma [11]: did not activate PPAR gamma
Structure (SMILES): CN(C(=O)CCCCC1CCSS1)c1ccc(CC2SC(=O)NC2=O)cc1 (centres unmarked) [compound 87]
adipogenesis and conversion of the fibroblasts to adipocytes [9]: but not compound 87 induced adipogenesis

Structure (SMILES): Cc1c(C)c2c(c(C)c1O)CCC(C)(COc1ccc(CC3SC(=O)NC3=O)cc1)O2 (centres unmarked) [troglitazone, reference compound]
cell toxicity (release of lactate dehydrogenase in the culture medium) [5]: associated with cell toxicity
